Calls of active or inactive are those of the source. The calls are words filed in the database; no cut-off is given here.
Assays:
HCT-116 [1] = experiment: cells; conditions: Homo sapiens, HCT-116, 48 h
DLD-1 = experiment: Antiproliferative activity against human DLD-1 cells assessed as reduction in cell viability incubated for 48 hrs by MTT assay; format: functional, cell-based; conditions: DLD-1, 48 h
[2] = Selectivity index, ratio of IC50 for cytotoxicity against human NCM460 cells to IC50 for antiproliferative activity against human HCT-116 cells; format: toxicity, cell-based; conditions: NCM460 cells and HCT-116 cells, read-out: Ratio IC50
[3] = Cytotoxicity against human NCM460 cells assessed as reduction in cell viability incubated for 48 hrs by MTT assay; format: toxicity, cell-based
SW480 = experiment: cells; conditions: Homo sapiens, SW480, 48 h
Description: Antiproliferative activity against human SW480 cells assessed as reduction in cell viability incubated for 48 hrs by MTT assay

[4] = target: Poly [ADP-ribose] polymerase 1 (Homo sapiens, UniProt P09874); experiment: Inhibition of human PARP-1 by ELISA
[5] = target: Poly [ADP-ribose] polymerase 2 (Homo sapiens, UniProt Q9UGN5); experiment: Inhibition of human PARP-2 by ELISA
HCT-116 [6] = experiment: Induction of mitochondrial membrane potential loss in human HCT-116 cells assessed as increase in monomer JC-1 level by measuring green fluorescence intensity at 15 uM incubated for 48 hrs by immunofluorescence analysis; format: functional, cell-based
HCT-116 [7] = experiment: Induction of mitochondrial membrane potential loss in human HCT-116 cells assessed as JC-1 aggregate level by measuring red fluorescence intensity at 15 uM incubated for 48 hrs by JC-1 staining based flow cytometry (reference value: 96.72%); format: functional
HCT-116 [8] = experiment: Induction of mitochondrial membrane potential loss in human HCT-116 cells assessed as JC-1 monomer level by measuring green fluorescence intensity at 15 uM incubated for 48 hrs by JC-1 staining based flow cytometry (reference value: 3.28%); format: functional

Sequence of Poly [ADP-ribose] polymerase 2 (Q9UGN5 whole entry): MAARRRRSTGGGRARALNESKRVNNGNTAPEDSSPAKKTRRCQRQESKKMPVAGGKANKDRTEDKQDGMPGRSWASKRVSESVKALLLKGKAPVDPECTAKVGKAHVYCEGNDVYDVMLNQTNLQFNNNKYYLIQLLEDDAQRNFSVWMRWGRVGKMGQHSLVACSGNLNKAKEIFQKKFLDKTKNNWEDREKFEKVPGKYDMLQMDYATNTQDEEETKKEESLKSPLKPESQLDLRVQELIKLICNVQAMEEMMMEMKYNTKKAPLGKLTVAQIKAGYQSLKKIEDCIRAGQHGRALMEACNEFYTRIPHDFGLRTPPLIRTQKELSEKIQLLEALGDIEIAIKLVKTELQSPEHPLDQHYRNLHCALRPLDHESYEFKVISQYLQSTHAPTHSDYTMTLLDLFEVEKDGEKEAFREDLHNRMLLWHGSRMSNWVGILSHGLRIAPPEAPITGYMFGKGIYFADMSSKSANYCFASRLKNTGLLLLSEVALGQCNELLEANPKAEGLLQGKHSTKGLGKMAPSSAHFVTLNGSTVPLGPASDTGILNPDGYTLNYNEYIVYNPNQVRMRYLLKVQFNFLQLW
Sequence of Poly [ADP-ribose] polymerase 1 (P09874 whole entry): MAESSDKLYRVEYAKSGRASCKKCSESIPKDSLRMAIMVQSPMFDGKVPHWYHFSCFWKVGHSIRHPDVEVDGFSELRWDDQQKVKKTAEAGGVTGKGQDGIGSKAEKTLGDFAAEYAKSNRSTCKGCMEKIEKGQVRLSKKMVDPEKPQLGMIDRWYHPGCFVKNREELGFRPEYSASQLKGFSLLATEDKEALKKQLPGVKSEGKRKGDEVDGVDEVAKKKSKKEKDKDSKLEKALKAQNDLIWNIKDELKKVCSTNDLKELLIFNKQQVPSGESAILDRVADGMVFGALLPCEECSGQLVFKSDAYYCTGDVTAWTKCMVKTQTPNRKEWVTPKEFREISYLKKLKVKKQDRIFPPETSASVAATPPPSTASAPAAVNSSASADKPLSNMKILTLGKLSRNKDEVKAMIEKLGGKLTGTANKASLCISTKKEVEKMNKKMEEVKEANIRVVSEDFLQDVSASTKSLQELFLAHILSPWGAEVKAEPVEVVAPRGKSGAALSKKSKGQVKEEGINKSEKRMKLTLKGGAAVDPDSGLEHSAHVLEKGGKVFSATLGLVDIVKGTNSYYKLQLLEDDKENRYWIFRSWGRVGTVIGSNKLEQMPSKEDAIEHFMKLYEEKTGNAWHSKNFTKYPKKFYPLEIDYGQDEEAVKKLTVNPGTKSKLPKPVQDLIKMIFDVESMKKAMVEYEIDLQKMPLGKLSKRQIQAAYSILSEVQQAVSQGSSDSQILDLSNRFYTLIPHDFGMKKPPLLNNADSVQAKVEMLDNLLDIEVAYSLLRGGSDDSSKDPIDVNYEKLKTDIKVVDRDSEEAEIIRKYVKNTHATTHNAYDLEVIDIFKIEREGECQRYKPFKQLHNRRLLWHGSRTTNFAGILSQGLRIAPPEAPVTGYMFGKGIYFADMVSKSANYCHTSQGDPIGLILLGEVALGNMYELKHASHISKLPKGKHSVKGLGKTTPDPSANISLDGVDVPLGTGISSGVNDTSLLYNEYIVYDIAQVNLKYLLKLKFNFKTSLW

Row | SMILES | IC50 (HCT-116 [1]) [µM] | IC50 (DLD-1) [µM] | IC50 (SW480) [µM] | IC50 [4] [µM] | IC50 [5] [µM] | selectivity ratio [2] | IC50 at 48 h [3] [µM] | Activity (HCT-116 [6]) | Activity (HCT-116 [7]) [%] | Activity (HCT-116 [8]) [%]
1 | NC(=O)c1ccccc1NCc1cccc(NC(=O)Cc2cccc(Br)c2)c1 | 23.4 | 22.8 | 8.82 |  |  | 5.52 | 129 |  |  | 
2 | NC(=O)c1ccccc1OCc1cccc(NC(=O)c2ccccc2Cl)c1 | 35.3 | 36.4 | 11.6 |  |  | 3.72 | 131 |  |  | 
3 | NC(=O)c1ccccc1NCc1cccc(NC(=O)Cc2ccccc2Br)c1 | 20.7 | 11.7 | 14 |  |  | 3.35 | 69.4 |  |  | 
4 | NC(=O)c1ccccc1NCc1cccc(NC(=O)c2ccc(Br)cc2)c1 | 37.9 | 44.5 | 37 |  |  | 1.59 | 60.2 |  |  | 
5 | NC(=O)c1ccccc1OCc1cccc(NC(=O)c2cccc(Br)c2)c1 | > 100 | 64.9 | > 100 |  |  |  | 238 |  |  | 
6 | NC(=O)c1ccccc1OCc1cccc(NC(=O)c2ccccc2Br)c1 | 60.1 | 47 | 16.9 |  |  | 2.68 | 161 |  |  | 
7 | NC(=O)c1ccccc1OCc1cccc(NC(=O)Nc2cccc(Br)c2)c1 | 8.93 | 13.2 | 25.1 |  |  | 12.5 | 134 |  |  | 
8 | NC(=O)c1ccccc1NCc1cccc(NC(=O)Cc2ccccc2Cl)c1 | 13.8 | 29.4 | 10.7 |  |  | 4.72 | 65 |  |  | 
9 | NC(=O)c1ccccc1OCc1cccc(NC(=O)c2cccc(Cl)c2)c1 | 39.6 | 45.5 | > 100 |  |  | 10.6 | 419 |  |  | 
10 | NC(=O)c1ccccc1NCc1cccc(NC(=O)c2ccccc2Br)c1 | 22.9 | 35 | 17.2 |  |  | 2.88 | 65.8 |  |  | 
11 | NC(=O)c1ccccc1NCc1cccc(NC(=O)c2ccccc2Cl)c1 | 37.8 | 9.14 | 31.7 |  |  | 2.78 | 105 |  |  | 
12 | NC(=O)c1ccccc1NCc1cccc(NC(=O)c2cccc(Cl)c2)c1 | 26.4 | 45.4 | 62.4 |  |  | 7.58 | 200 |  |  | 
13 | NC(=O)c1ccccc1OCc1cccc(NC(=O)Cc2ccccc2Cl)c1 | 22.1 | 18.7 | 12.7 |  |  | 4.48 | 98.7 |  |  | 
14 | O=C(c1cc(Cc2n[nH]c(=O)c3ccccc23)ccc1F)N1CCN(C(=O)C2CC2)CC1 [OLAPARIB] | 26.4 | 13.7 | 39.3 |  |  |  | 319 | Active | 83.67 | 16.33
15 | NC(=O)c1ccccc1NCc1cccc(NC(=O)c2ccc(Cl)cc2)c1 | 45.2 | 11.8 | 61.1 |  |  | 12.5 | 563 |  |  | 
16 | NC(=O)c1ccccc1NCc1cccc(NC(=O)Cc2cccc(Cl)c2)c1 | 75.9 | 9.14 | > 100 |  |  | 1.02 | 77.2 |  |  | 
17 | NC(=O)c1ccccc1NCc1cccc(NC(=O)Cc2ccc(Cl)cc2)c1 | 15.7 | 7.86 | 20.2 |  |  | 0.9 | 14 |  |  | 
18 | NC(=O)c1ccccc1NCc1cccc(NC(=O)Cc2ccc(Br)cc2)c1 | 19.6 | 14 | 8.71 |  |  | 2.62 | 51.3 |  |  | 

These reach a lower IC50 (HCT-116 [1]). Values come first.

Row | IC50 (HCT-116 [1]) [µM] | IC50 (DLD-1) [µM] | IC50 (SW480) [µM] | IC50 [4] [µM] | IC50 [5] [µM] | SMILES | selectivity ratio [2] | IC50 at 48 h [3] [µM] | Activity (HCT-116 [6]) | Activity (HCT-116 [7]) [%] | Activity (HCT-116 [8]) [%]
19 | 8.09 | 9.69 | 8.11 |  |  | NC(=O)c1ccccc1OCc1cccc(NC(=O)Cc2ccccc2Br)c1 | 22.6 | 183 |  |  | 
20 | 7.87 | 7.7 | 19.8 |  |  | NC(=O)c1ccccc1NCc1cccc(NC(=O)Nc2cccc(Br)c2)c1 | 17.9 | 154 |  |  | 
21 | 7.38 | 22 | 5.48 |  |  | NC(=O)c1ccccc1OCc1cccc(NC(=O)Cc2cccc(Cl)c2)c1 | 9.79 | 72.2 |  |  | 
22 | 6.33 | 14.9 | 16 |  |  | NC(=O)c1ccccc1OCc1cccc(NC(=O)Cc2cccc(Br)c2)c1 | 14.4 | 91.2 |  |  | 
23 | 5.86 | 19.6 | 27.4 |  |  | NC(=O)c1ccccc1OCc1cccc(NC(=O)Cc2ccc(Cl)cc2)c1 | 48.8 | 286 |  |  | 
24 | 5.69 | 10 | 5.08 |  |  | NC(=O)c1ccccc1NCc1cccc(NC(=O)c2cccc(Br)c2)c1 | 12.9 | 73.5 |  |  | 
25 | 4.1 | 18.1 | 30.8 |  |  | NC(=O)c1ccccc1OCc1cccc(NC(=O)Cc2ccc(Br)cc2)c1 | 19 | 78 |  |  | 
26 | 0.33 | 13 | 33.3 | 0.00128 | 0.00436 | NC(=O)c1ccccc1OCc1cccc(NC(=O)c2ccc(Cl)cc2)c1 | 1020 | 340 |  |  | 

Reference: ChEMBL document CHEMBL5346921, “Discovery of novel benzamide derivatives bearing benzamidophenyl and phenylacetamidophenyl scaffolds as potential antitumor agents via targeting PARP-1” (Eur J Med Chem, 2023)
